Measured values: US7816332B2, “Stable aqueous solution of natamycin fungicide” (DSM IP Assets B.V., priority 2003, dated 2010)
Read-outs that look alike come from different tables or passages of the source.

Legend:
[1] = Dissolution of natamycin when preparing solutions, with controls (Example 1); format: physicochemical
Method: (§1) • An ethanolic aqueous solution having a pH of 12.8 was prepared by mixing 60 ml of a 0.04 N sodium hydroxide solution and 40 ml of 96% ethanol. • While stirring vigorously, 1 g of natamycin was added. The natamycin dissolved within 2 minutes. • Immediately after dissolution, the obtained concentrated natamycin solution was added to 20 l of a 0.01 M citrate buffer solution. A solution containing 57 ppm of natamycin and 0.2% of ethanol with a pH of 6.5 was obtained. • In a similar manner, a solution containing 101 ppm of natamycin and 0.4% of ethanol and a solution containing 202 ppm of natamycin and 0.8% of ethanol was obtained by adding the concentrated natamycin solution to […] of a 0.01 M citrate buffer respectively. Preparation of the Natamycin Solutions (2)
Controls • 1 g of natamycin was added to a neutral ethanolic aqueous system containing up to 40% of ethanol.

[2] = Stability of buffered natamycin solutions on storage, HPLC (Example 1); format: physicochemical; conditions: for amount of natamycin after storage (HPLC): 24 hours at 21° C.
Method: as §1
Stability of the Solutions • The amount of natamycin in the compositions (1) was determined after 24 hours storage at 21° C. The amount of natamycin was determined using well-known methods (HPLC) and shown to be 57, 97 and 196 ppm respectively. Hardly any loss of activity was observed after 9 days storage at 6° C. The concentration of natamycin was 49, 100 and 170 ppm respectively. Even after storage for 9 days at 21° C., the concentration of natamycin of the composition containing 101 ppm at t=0 was 99 ppm.

[3] = Stability of non-buffered natamycin solutions on storage (Example 2); format: physicochemical
Method: This Example describes the rapid preparation of a stable aqueous composition of natamycin in a non-buffered aqueous system with enhanced solubility. • A concentrated natamycin solution was prepared as described in Example 1 (1). • However, after diluting the concentrated natamycin solution in water, the pH was adjusted to 6.4-6.6 using HCL. Finally, solutions containing 101 and 202 ppm of natamycin were obtained. • The amount of natamycin in the compositions was determined after 24 hours storage at 21° C. The concentration of natamycin was 99 and 192 ppm respectively. Hardly any loss of activity was observed after 9 days storage at 6° C. The concentration of natamycin was 98 and 198 ppm respectively. Even after storage for 9 days at 21° C. the concentration of natamycin in the composition containing 101 ppm at t=0 was 82 ppm. […] The amount of dissolved natamycin of these solutions is at least 6 times higher than the maximum solubility in water at the same pH values

most yeasts = conditions: cited from earlier work
most foodborne fungi = conditions: cited from earlier work
[4] = cited from earlier work

What does the source list for `C[C@@H]1C/C=C/C=C/C=C/C=C/[C@H](O[C@@H]2O[C@H](C)[C@@H](O)[C@H](N)[C@@H]2O)C[C@@H]2O[C@](O)(C[C@@H](O)C[C@H]3O[C@@H]3/C=C/C(=O)O1)C[C@H](O)[C@H]2C(=O)O` [natamycin]?
time to dissolve ([1]; 1 g natamycin in 100 ml ethanolic aqueous solution of pH 12.8 (0.04 N NaOH / 96% ethanol 60:40), vigorous stirring): ≤ 2 min; dissolution (control) ([1]; 1 g natamycin in neutral ethanolic aqueous system containing up to 40% ethanol, a few hours of stirring): not fully dissolved; dissolution (control) ([1]; 200 ppm natamycin in buffered aqueous system, solvent not present): did not dissolve; dissolution (control) ([1]; 200 ppm natamycin, solvent present, without first raising the pH to 12.8): did not dissolve; dissolution (control) ([1]; same procedure as Example 1 without adding a solvent): did not dissolve; amount of dissolved natamycin relative to maximum solubility in water at the same pH ([2]; Example 1 buffered solutions): at least 6 times; amount of natamycin after storage (HPLC) ([2]; solution with 57 ppm at t=0, 0.2% ethanol, citrate buffer pH 6.5): 57 ppm; concentration of natamycin after storage ([2]; solution with 57 ppm at t=0, 0.2% ethanol, citrate buffer, 9 days at 6° C.): 49 ppm; amount of natamycin after storage (HPLC) ([2]; solution with 101 ppm at t=0, 0.4% ethanol, citrate buffer): 97 ppm; concentration of natamycin after storage ([2]; solution with 101 ppm at t=0, 0.4% ethanol, citrate buffer, 9 days at 6° C.): 100 ppm; concentration of natamycin after storage ([2]; solution with 101 ppm at t=0, citrate buffer, 9 days at 21° C.): 99 ppm; amount of natamycin after storage (HPLC) ([2]; solution with 202 ppm at t=0, 0.8% ethanol, citrate buffer): 196 ppm; concentration of natamycin after storage ([2]; solution with 202 ppm at t=0, 0.8% ethanol, citrate buffer, 9 days at 6° C.): 170 ppm; amount of dissolved natamycin relative to maximum solubility in water at the same pH ([3]; Example 2 non-buffered solutions): at least 6 times; concentration of natamycin after storage ([3]; non-buffered solution with 101 ppm at t=0, pH 6.4-6.6 (HCl), 24 hours at 21° C.): 99 ppm; concentration of natamycin after storage ([3]; non-buffered solution with 101 ppm at t=0, 9 days at 6° C.): 98 ppm; concentration of natamycin after storage ([3]; non-buffered solution with 101 ppm at t=0, 9 days at 21° C.): 82 ppm; concentration of natamycin after storage ([3]; non-buffered solution with 202 ppm at t=0, pH 6.4-6.6 (HCl), 24 hours at 21° C.): 192 ppm; concentration of natamycin after storage ([3]; non-buffered solution with 202 ppm at t=0, 9 days at 6° C.): 198 ppm; minimal inhibitory concentration (most yeasts): less than 5 ppm; minimal inhibitory concentration (most foodborne fungi): less than 10 ppm; maximum solubility ([4]; acetone/water (4:1) system): 110 ppm; solubility ([4]; ethanol/water (4:1) system): 220 ppm; solubility ([4]; pure ethanol): 40 ppm; solubility in water ([4]; water at neutral pH levels): 30 ppm
